Experiments:
[1] = tested on: Guinea Pigs; test: Anaesthetized Guinea Pig Model (furosemide-treated, blood pressure via carotid artery); type: in vivo; parameters: unit not given beside the values; conditions: intravenous, change from pretreatment
Description: Anaesthetized Guinea Pig Model
Experimental Procedure: Guinea Pigs were Treated with Furosemide in Drinking Water
(5 mg/kg/day) for four days and intramuscular injection (10 mg/kg) at 18 and 3 hr before experiment. There after they were anaesthetized by using intramuscular injection of xylazine and ketamine (7:70 mg/kg mixture). The left or right jugular vein was exposed and cannulated for intravenous administration of the NCEs. The to left or right carotid artery was exposed and cannulated for recording blood pressure using Biopac system. 0 (vehicle control), 3 and 10 mg of NCEs were administered and change in blood pressure from pretreatment was measured.

[2] = target: T1, human recombinant renin (Homo sapiens, UniProt P00797); test: Inhibition of human recombinant renin (modified Cayman renin inhibitor screening assay, fluorescence); type: biochemical; conditions: for Renin inhibition (percent inhibition of renin activity) at 0.01 μM / inhibition at 0.01 µM: 0.01 μM compound; for Renin inhibition (percent inhibition of renin activity) at 0.01 μM / Renin inhibition (percent inhibition of renin activity) at 0.1 μM / inhibition at 0.01 µM / inhibition at 0.1 µM: 37° C., 30 mins, human recombinant renin; for Renin inhibition (percent inhibition of renin activity) at 0.1 μM / inhibition at 0.1 µM: 0.1 μM compound; for inhibition at 0.01 µM: read-out: Renin inhibition (percent inhibition of renin activity) at 0.01 μM; for inhibition at 0.1 µM: read-out: Renin inhibition (percent inhibition of renin activity) at 0.1 μM
T1 construct: purchased Cayman 10006270
T1 sequence (P00797 67-406): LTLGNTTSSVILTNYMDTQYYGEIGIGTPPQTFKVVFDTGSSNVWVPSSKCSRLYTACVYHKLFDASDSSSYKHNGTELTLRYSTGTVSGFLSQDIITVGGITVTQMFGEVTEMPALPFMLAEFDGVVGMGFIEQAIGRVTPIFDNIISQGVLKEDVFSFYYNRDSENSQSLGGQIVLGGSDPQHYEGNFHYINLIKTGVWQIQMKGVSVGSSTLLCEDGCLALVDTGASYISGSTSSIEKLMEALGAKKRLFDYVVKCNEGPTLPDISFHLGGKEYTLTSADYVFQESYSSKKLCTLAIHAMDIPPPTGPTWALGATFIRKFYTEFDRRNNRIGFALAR
Description: In-vitro protocol for the Inhibition of human recombinant renin by the compound of invention • Procedure: The enzymatic in vitro assay was performed in 96 well polypropylene plate (Nunc), using a modified Renin inhibitor screening assay protocol (Cayman, cat no: 10006270). The reaction system comprised assay buffer containing 50 mM Tris-HCL, pH=8.0 & 100 mM sodium chloride, human recombinant rennin (1:20 diluted with fixed activity), synthetic renin substrates (Cayman, cat no: 10006906) (14.4 μM) and different concentrations of renin inhibitors in DMSO in a total reaction system of 100 μl. The entire reaction mixture were incubated at 37° C. for 30 mins and the fluorescence was read at excitation wavelengths of 320-360 nm and emission wavelengths of 490-520 nm. Test compounds efficacy was determined by the percent inhibition of renin activity using Aliskiren (Tekturna) as a reference standard.
Following table represents measured IC50 values of the selected compounds for its inhibition of human recombinant renin.

| SMILES | Reduction in M.A.B.P ([1]; 3 mg) | Reduction in M.A.B.P ([1]; 10 mg) | IC50 [2] [nM] | Renin inhibition (percent inhibition of renin activity) at 0.01 μM [2] [%] | Renin inhibition (percent inhibition of renin activity) at 0.1 μM [2] [%] | melting point [°C] | inhibition at 0.01 µM [2] [%] | inhibition at 0.1 µM [2] [%] | Renin inhibition (percent inhibition of renin activity) at 0.01 μM ([2]; hydrochloride, 0.01 µM) [%] | Renin inhibition (percent inhibition of renin activity) at 0.1 μM ([2]; hydrochloride, 0.1 µM) [%] |
| --- | --- | --- | --- | --- | --- | --- | --- | --- | --- | --- |
| Cc1cc(Cl)c(OCCOc2ccc(C(=O)N[C@H]3CCNCC3C(=O)N(Cc3cccc(C)c3C)C3CC3)cc2)c(Cl)c1 (stereo partly drawn) [Example 26, (4S)—N-Cyclopropyl-4-(4-(2-(2,6-dichloro-4-methylphenoxy)ethoxy)benzamido)-N-(2,3-dimethylbenzyl)piperidine-3-carboxamide] | 14 | 28 | 21 | 67 | 97 | – | – | – | – | – |
| O=C(NC1CCNCC1C(=O)N(Cc1cccc(Cl)c1Cl)C1CC1)c1ccc(OCCOc2c(Cl)cccc2Cl)cc1 (stereo not drawn) [Example 1, N-cyclopropyl-N-(2,3-dichlorobenzyl)-4-(4-(2-(2,6-dichlorophenoxy)ethoxy)benzamido) piperidine-3-carboxamide] | 18 | 30 | 16 | – | – | 66 to 68 | 88 | 100 | – | – |
| COc1ccccc1CN(C(=O)C1CNCC[C@@H]1NC(=O)c1ccc(OCCOc2c(Cl)cc(C)cc2Cl)cc1)C1CC1.Cl (stereo partly drawn) [Example 31, (4S)—N-Cyclopropyl-4-(4-(2-(2,6-dichloro-4-methylphenoxy)ethoxy)benzamido)-N-(2-methoxybenzyl)piperidine-3-carboxamide hydrochloride] | 8 | 28 | 37 | – | – | – | 22 | 91 | – | – |
| COc1cccc(CN(C(=O)C2CNCC[C@@H]2NC(=O)c2ccc(OCCOc3c(Cl)cc(C)cc3Cl)cc2)C2CC2)c1OC.Cl (stereo partly drawn) [Example 15, (4S)—N-cyclopropyl-4-(4-(2-(2,6-dichloro-4-methylphenoxy)ethoxy)benzamido)-N-(2,3-dimethoxybenzyl)piperidine-3-carboxamide hydrochloride] | – | – | – | – | – | – | – | – | 13 | 12 |

Reference: patent US20120115907A1, “NOVEL COMPOUNDS AS INHIBITORS OF RENIN” (CADILA HEALTHCARE LIMITED, priority 2009, published 2012)
